Experiment: Human HepG2 cell viability assay in 384 well format
Format: toxicity, cell-based
Parameters: dose 125 nL, time 70.5 hour; cytotoxicity at 70.5 h: concentration not given beside the values
Conditions: HepG2 cells, read-out: Inhibition

| SMILES | cytotoxicity at 70.5 h [%] |
| --- | --- |
| Cc1cccnc1NC(=O)CSc1ccc2c(c1)OCCO2 | -9.85 |
| CCN1CCN(S(=O)(=O)c2ncn(C)c2Cl)CC1 | -8.62 |
| CC(CNC(=O)c1ccc(F)cc1Cl)N1CCCC1 (stereo unspecified) | -7.32 |
| O=C1CN(Cc2nnc(-c3ccccc3Br)o2)CCN1 | -6.27 |
| O=C(NCc1ccoc1)Nc1ccc(CN2CCOC2=O)cc1 | 19 |
| NC(=O)CN1CCCN(C(=O)c2ccn(-c3ccccc3)n2)CC1 | -3.77 |
| OC1CCN(Cc2cc3c(cc2Br)OCCO3)CC1 | 0.754 |
| CCc1nnc2n1CCN(C(=O)c1csc(-c3cnn(C)c3)n1)C2 | -6.07 |
| COCCN(Cc1ccc(F)cc1Cl)C(=O)c1ccc(=O)[nH]n1 | -3.15 |
| O=C(NCCO)Nc1cccc(Cl)c1SC(F)F | 16.9 |
| COc1ccccc1OCC(=O)Nc1ncccc1OC(F)F | -7.67 |
| Cc1cc(CN2CCc3nn(C)c(=O)cc3C2)on1 | 3.7 |
| Cn1c(CNc2c(F)cccc2-n2cccn2)cc(=O)n(C)c1=O | 0.334 |
| Cc1ccc(CC(=O)N2CCOC(c3nc(C)n[nH]3)C2)cn1 (stereo unspecified) | -4.16 |
| O=C(CSc1ccc2c(c1)OCCO2)NS(=O)(=O)C1CCCCC1 | 0.938 |
| Cc1ccccc1S(=O)(=O)NC(=O)CSc1ccc2c(c1)OCCO2 | -4.74 |
| O=C(Nc1ccnc(OC2CCOC2)c1)c1cc(F)ccc1F (stereo unspecified) | 14.1 |
| CCNS(=O)(=O)c1ccc(C)c(C(=O)N(C)Cc2ccco2)c1 | -5.04 |
| Cc1cnn(CCC(=O)N2CCOC(c3nc(C(C)(C)C)n[nH]3)C2)c1 (stereo unspecified) | 15.8 |
| Cc1occc1C(=O)Nc1ccnc(OC2CCOC2)c1 (stereo unspecified) | -7.45 |
| O=C(c1ccc(Br)s1)N1CCN(Cc2ccc(OC(F)(F)F)cc2)CC1 | 1.44 |
| CCc1nc(CN2CCCN(Cc3cnn(C)c3)CC2)no1 | 0.0385 |
| O=C(c1cc(Cl)cc(Cl)c1)N1CCN(c2nccs2)CC1 | -1.02 |

| SMILES | cytotoxicity at 70.5 h [%] |
| --- | --- |
| CC(C)NC(=O)NCCCc1cc(N)n(-c2ccccc2)n1 | 15.9 |
| Nc1cc(CCCNC(=O)NC2CC2)nn1-c1ccccc1 | -2.83 |
| O=C(c1cc(Cl)c2c(c1)OCO2)N1CCN(c2nccs2)CC1 | 1.39 |
| Cc1nn(C)c(N(C)C)c1CNCC(O)COc1ccc(F)cc1 (stereo unspecified) | 2.45 |
| CC1(NC(=O)Cc2csc(C(C)(C)C)n2)CCS(=O)(=O)C1 (stereo unspecified) | 18.9 |
| COc1ccc(NC(=O)NC(C)(C)c2noc(C)n2)cc1 | 0.532 |
| CC(C#N)CSc1ccccc1NCC(=O)NCc1ccccc1 (stereo unspecified) | 4.47 |
| CC(C)CNC(=O)NC(=O)CNc1ccccc1SCC(C)C#N (stereo unspecified) | -2.52 |
| Cc1cnn(CC2CCCN2Cc2coc(-c3cccs3)n2)c1 (stereo unspecified) | -0.977 |
| COCC(NC(=O)c1ccc[nH]1)c1cccc(C(F)(F)F)c1 (stereo unspecified) | 17.9 |
| CCn1nc2c(cc1=O)CN(Cc1nc(N)c3ccccc3n1)CC2 | -2.07 |
| NC(=O)CCOc1nc(-c2ccccc2Cl)no1 | 16.5 |
| O=C(NCC(F)F)N1CCC(n2ccc(C(F)(F)F)n2)CC1 | 2.24 |
| CN(CCC(F)(F)F)C(=O)[C@H]1CSCN1C(=O)OC(C)(C)C | -1.73 |
| CCOCCN1CCN(Cc2nnc(C3CC3)o2)CC1CC (stereo unspecified) | 13.5 |
| COc1ccc(NC(C)C(=O)N2CCN(Cc3ccccc3)CC2)cn1 (stereo unspecified) | -10 |
| CCc1ncc2c(n1)CN(Cc1nnc(C)o1)CC2 | -8.24 |
| Cc1cnn(CC2CCCN2Cc2coc(-c3ccccc3)n2)c1 (stereo unspecified) | 13.5 |
| CCc1noc(C(C)N(C)CC(=O)Nc2cccc(C)n2)n1 (stereo unspecified) | -6.94 |
| CCc1nc(CN2CCCC(N(C)Cc3cnn(C)c3)C2)no1 (stereo unspecified) | -10.2 |
| CN(Cc1cccs1)C(=O)CN1CCCC1Cn1cncn1 (stereo unspecified) | 2.88 |
| CCc1nc(CN2CCCN(c3ncnc4ccccc34)CC2)no1 | 40.8 |
| CC(C)c1noc(CN(Cc2ccccc2F)C2CC2)n1 | -12 |

| SMILES | cytotoxicity at 70.5 h [%] |
| --- | --- |
| COc1cc(NC(=O)c2cc(C)sc2C)c(C(=O)N(C)C)cc1OC | -19.4 |
| CC(C)Cc1noc(CN2CCC(NC(=O)c3cccs3)CC2)n1 | -8.58 |
| Cc1c(CC(=O)N2CCN(CC(F)(F)F)CC2)nnn1-c1ccccc1 | -11.3 |
| NS(=O)(=O)CCNC(=O)C1(c2ccc(Br)cc2)CC1 | -10.5 |
| Cc1cc(CN2CC[C@H]3C[C@@H](C)O[C@@H]3C2)no1 | -7.88 |
| Cn1cc(N2CCC3(CCCN(Cc4ccoc4)C3)C2=O)cn1 (stereo unspecified) | -6.63 |
| O=C(c1ccco1)N1C[C@H]2CN(Cc3cccc(F)c3)C(=O)[C@H]2C1 | -7.79 |
| O=C(c1ccnnc1)N1C[C@H]2CN(Cc3cccc(F)c3)C(=O)[C@H]2C1 | -13.7 |
| Cc1cc(CN2CC[C@H]3C[C@@H](c4nccs4)O[C@@H]3C2)no1 | -2.76 |
| C[C@@H]1C[C@@H]2CCN(Cc3ccncc3)C[C@H]2O1 | -3.23 |
| Cc1noc(C)c1CN1CC[C@H]2C[C@H](c3ccncn3)O[C@@H]2C1 | -8.76 |
| COc1cc(N2CC[C@H](O)[C@@H]2Cc2ccccc2)ncn1 | 16.6 |
| CC(C)Nc1ncnc2c1CCN(C(=O)CCc1ccccc1)CC2 | -3.23 |
| CC(C)Nc1ncnc2c1CCN(C(=O)N1CCOCC1)CC2 | 10.6 |
| CN(C)C(=O)N1CCC2(CC1)C(c1cnn(C)c1)CC(=O)N2C (stereo unspecified) | -7.08 |
| Cc1cccc(C(=O)N2C[C@H](NS(C)(=O)=O)[C@@H]3OCCC[C@@H]32)n1 | -10.2 |
| CN1CCN(Cc2ccsc2)Cc2cccnc21 | -6.75 |
| CN1CCN(Cc2cccnc2)Cc2cccnc21 | -7.13 |
| CC(C)Nc1ncnc2c1CCN(C(=O)c1ccc[nH]1)CC2 | -9.63 |
| CS(=O)(=O)N[C@@H]1CN(C(=O)c2cnccn2)[C@@H]2CCCO[C@@H]21 | 29.4 |
| COCCN1CCN(Cc2ccoc2)Cc2cccnc21 | 6.66 |
| CC(C)Nc1ncnc2c1CCN(C(=O)Cc1cccs1)CC2 | -7.55 |
| CN1CCN(Cc2ccncc2)Cc2cccnc21 | -9.78 |

| SMILES | cytotoxicity at 70.5 h [%] |
| --- | --- |
| CN1C(=O)CC(c2cnn(C)c2)C12CCN(C(=O)c1ccno1)CC2 (stereo unspecified) | -12 |
| COc1cc(N2CC[C@H](O)[C@@H]2Cc2cccnc2)ncn1 | -10.8 |
| Cc1cccc(COC[C@]23COC[C@H]2CN(c2ncccn2)C3)n1 | -10.2 |
| O=C(c1ccnnc1)N1C[C@@H]2COC[C@]2(COCC2CC2)C1 | -7.55 |
| O=C(c1cccs1)N1C[C@H]2CCC[C@@]2(COCC2CCOCC2)C1 | 23.2 |
| CNC(=O)[C@@]12CCO[C@@H]1CCN(Cc1c(C)noc1C)C2 | -6.35 |
| CCC1=N[C@@]2(CC[C@@H]3CN(C(=O)NCc4ccccc4C)C[C@@H]32)C(=O)N1 | -11.1 |
| Cc1cnc(C(=O)N2CCC3(CC2)CN(c2ccccn2)CCO3)cn1 | -6.44 |
| CC(C)NC(=O)C1CN(C(=O)NCc2ccccc2)CC12CCOCC2 (stereo unspecified) | 1.12 |
| COCCN1CCC12CCN(C(=O)c1ccc3[nH]ccc3c1)C2 (stereo unspecified) | -7.37 |
| Cc1nn(C)c(N(C)C)c1CNCC(O)COc1ccccc1 (stereo unspecified) | -0.0724 |
| O=C(Cc1ccccc1)N1CCC2(CC1)COCCN2CC1CC1 | -9.82 |
| CNC(=O)CN1CCOCC12CCN(C(=O)c1ccc(C)cc1)CC2 | -6.86 |
| O=C(C1CCOCC1)N1CCC2(CCN(Cc3nccs3)CC2)CC1 | 9.62 |
| CCOCC1CN(C(=O)c2cscn2)Cc2cn(C)nc21 (stereo unspecified) | -4.69 |
| CCOCC1CN(C(=O)c2cnccn2)Cc2cnn(CC3CC3)c21 (stereo unspecified) | -10.4 |
| CCOCC1CN(C(=O)c2ccncn2)Cc2cnn(CC)c21 (stereo unspecified) | -11.7 |
| O=C(c1ccnnc1)N1C[C@H]2CCC[C@@]2(COCc2ccccn2)C1 | -3.81 |
| CN1C(=O)CC(c2cnn(C)c2)C12CCN(C(=O)c1ccncc1)CC2 (stereo unspecified) | -6.57 |
| Cc1nc(COC[C@@H]2CCC[C@@]23CN(C)CCO3)cs1 | 4.91 |
| O=C1[C@H]2CN(Cc3cccs3)C[C@H]2CN1c1ccsc1 | -5.8 |
| CC(C)Nc1ncnc2c1CCN(C(=O)c1ccccc1F)CC2 | -3.35 |
| Cc1noc(C)c1CN1CC[C@H]2OCC[C@@]2(C(=O)N2CCCC2)C1 | -5.9 |

| SMILES | cytotoxicity at 70.5 h [%] |
| --- | --- |
| Cc1noc(C)c1CN1CC[C@H]2OCC[C@@]2(C(=O)N2CCOCC2)C1 | -4.59 |
| c1cn2c(n1)CN(Cc1ccsc1)CC(Cn1cncn1)C2 (stereo unspecified) | -11.2 |
| Cc1noc(C)c1CN1CC[C@H]2OCC[C@@]2(C(=O)NCC2CC2)C1 | -5.64 |
| COCCNC(=O)[C@@]12CCO[C@@H]1CCN(Cc1cc(C)on1)C2 | 7.02 |
| Fc1cccc(CN2C[C@@H]3COC[C@]3(COCc3ccncc3)C2)c1 | -1.32 |
| Cn1cc(N2CC3(CCN(Cc4cccnc4)CC3)OCC2=O)cn1 | -3.89 |
| c1coc(CN2C[C@@H]3OCCN(CC4CCCO4)[C@@H]3C2)c1 (stereo partly specified) | -11.5 |
| COc1cc(N2C[C@@H]3COC[C@]3(COCc3ccncc3)C2)ncn1 | 8.15 |
| Cc1noc(C)c1CN1Cc2nccn2CC(CN2CCOCC2)C1 (stereo unspecified) | -11.8 |
| c1ccc(NCc2cnc3n2CCN(CC2CCOC2)CC3)nc1 (stereo unspecified) | -8.55 |
| c1cnc(N2CC3(CCN(Cc4ccncc4)C3)C2)nc1 | -6.13 |
| Fc1cnc(N2CCCC3(CCN(Cc4ccoc4)C3)C2)nc1 (stereo unspecified) | 11.2 |
| CN1CCN(Cc2cccc(C#N)c2)Cc2cccnc21 | -7.78 |
| COc1cc(N2C[C@@H]3COC[C@]3(COc3ncccc3F)C2)ncn1 | -9.91 |
| Cc1ccc2c(n1)N(Cc1ccncc1)CCN(S(C)(=O)=O)C2 | -10 |
| c1cncc(-c2nnn3c2COCC(CNC2CCOCC2)C3)c1 (stereo unspecified) | 12.3 |
| c1cncc(-c2nnn3c2COCC(CNCC2CCOCC2)C3)c1 (stereo unspecified) | 8.92 |
| c1cnc(N2CCC3(CCN(Cc4cccnc4)CC3)CC2)nc1 | -8.42 |
| Cc1ccc2c(n1)N(Cc1cccnc1)CCN(C1CCOCC1)C2 | 2.27 |
